Among the data in patent US10800791B2, “Triazole ACC inhibitors and uses thereof” (Gilead Apollo, LLC, priority 2015, dated 2020) are IC90, IC50 and MIC values, retold here.

Values after ≈ are worked out from the molar mass of the structure shown. Where two headings read alike, the source gives them in different places.

For one assay, the system named is Rhizoctonia solani (Rs). The assay is described as follows: Growth inhibition assay of fungal pathogens, Rs. In kind it is cell-based. The conditions noted are these: 48 h. As to the method: (§1) Compounds of the present invention were evaluated in a growth inhibition assay to determine the ability to control the growth of fungal pathogens, such as Botrtyis cinerea (Bc), Collectotrichum graminicola (Cg), Diplodia maydis (Dm), Fusarium moniliforme (Fm), Fusarium virguliforme (Fv), Phytophthora capsici (Pc), Rhizoctonia solani (Rs), and Septoria tritici (St).
(§2) Compounds to be tested were dissolved in DMSO at 2.5 mg/ml to produce compound stock solutions (“stocks”). Stocks were diluted with DMSO by a five-fold dilution in a 96-well stock plate, and two sets of final concentrations of 50, 10, and 2 ppm or 2, 0.4, and 0.08 ppm were obtained in vitro. A set of positive controls was also prepared, with various concentrations of Soraphen (2, 0.4, and 0.08 ppm), Metalaxyl (1.1, 0.22, and 0.04 ppm), and Metconazole (2, 0.4, and 0.08 ppm or 0.2, 0.04, and 0.008 ppm) after the five-fold dilutions. Negative controls on each plate included 2% DMSO, water, and a blank (media+2% DMSO).
(§3) Fungal spores were isolated from previously sub-cultured plates of Botrtyis cinerea (Bc), Collectotrichum graminicola (Cg), Diplodia maydis (Dm), Fusarium moniliforme (Fm), Fusarium virguliforme (Fv), Phytophthora capsici (Pc), and Septoria tritici (St). The isolated spores were diluted to individual concentrations with a 17% V8 liquid media. For Rhizoctonia solani (Rs) and Pythium irregulare, 1.5 mm mycelial plugs were used in place of spores and/4 Potato Dextrose Broth (PDB) was used for dilution. The spore concentrations and plug sizes were based on growth curves generated at 48 hours for each pathogen.
(§4) In a second 96-well plate, the spores or mycelial plugs, media, diluted compound solutions, and controls were combined. Once the compound was added, a true final concentration of compound in each well was measured by an OD600 reading, which adjusted for any compound precipitation that might have occurred in the well. Plate readings were repeated at both 24 and 48 hours. The blank negative control was used as a background subtraction. Additional visual ratings were performed at both 24 and 48 hours for checking on precipitation and confirming efficacy. Visual and OD600 ratings of the compounds at 48 hours were compared to the 2% DMSO negative control, and the percent of pathogen growth inhibition was determined based on those values.

A further assay concerns the target human (hACC2) (Homo sapiens, UniProt O00763). The assay is described as follows: In vitro ACC inhibition assay (ADP-Glo), hACC2. The conditions noted are these: 5 nM ACC2, 20 μM ATP, 20 μM acetyl-CoA. In kind it is biochemical. The procedure: The detailed procedure is as follows. […] 10 μL ADP glo reagent was added. […] 20 μL kinase detection reagent was added.
A general note: In ADP-Glo the light output rises with the ADP produced.

In assay [1] the test system is Fusarium moniliforme (Fm). The assay is described as follows: Growth inhibition assay of fungal pathogens, Fm. In kind it is cell-based. The conditions noted are these: Fusarium verticillioides, 48 h, Fusarium moniliforme; growth inhibition at 48 hours vs 2% DMSO control; read-out: Concentration at 90% Inhibition Fm. As to the method:
as §1, §2, §3, §4

The next assay has as its system Diplodia maydis (Dm). The assay is described as follows: Growth inhibition assay of fungal pathogens, Dm. To be noted: Stenocarpella maydis, 48 h, Diplodia maydis; growth inhibition at 48 hours vs 2% DMSO control; read-out: Concentration at 90% Inhibition Dm. Type of assay: cell-based. As to the method:
as §1, §2, §3, §4

The subject of the next assay is C. parapsilosis. The assay is described as follows: Antifungal Activity Assay (broth microtiter MIC), C. parapsilosis. In kind it is cell-based, Candida parapsilosis. The conditions noted are these: Lodderomyces parapsilosis, ATCC22019, 48 h, Table 3b (additional results); ATCC 22019; 3 replicates; MIC recorded at 48 h; read-out: MIC, C. parapsilosis ATCC 22019. A digest of the protocol: (§5)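 MICs were scored by eye at 48 h relative to the growth control. Plates followed CLSI M27-A3, with Candida suspensions in RPMI 1640+MOPS giving a final 2.5×10^3 CFU/mL; the colonies came from Sabouraud agar grown overnight at 35 °C.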

A further assay relates to C. albicans. The assay can be described thus: Antifungal Activity Assay (broth microtiter MIC), C. albicans. In kind it is cell-based, Candida albicans. To be noted: Candida albicans, ATCC90028, 48 h, Table 3b (additional results); ATCC 90028; 3 replicates; MIC recorded at 48 h; read-out: MIC, C. albicans ATCC 90028. A digest of the protocol:
as §5

A further assay concerns C. krusei. The assay can be described thus: Antifungal Activity Assay (broth microtiter MIC), C. krusei. The conditions noted are these: Pichia kudriavzevii, ATCC6258, 48 h, Table 3b (additional results); ATCC 6258; 3 replicates; MIC recorded at 48 h; read-out: MIC, C. krusei ATCC 6258. In kind it is cell-based, Candida krusei. A digest of the protocol:
as §5

The test system of the next assay is Botrtyis cinerea (Bc). The assay can be described thus: Growth inhibition assay of fungal pathogens, Bc. In kind it is cell-based. To be noted: 48 h, Botrtyis cinerea; growth inhibition at 48 hours vs 2% DMSO control; read-out: Concentration at 90% Inhibition Bc. As to the method: as §1, §2, §3, §4
The test system of assay [2] is Collectotrichum graminicola (Cg). The assay can be described thus: Growth inhibition assay of fungal pathogens, Cg. To be noted: 48 h, Collectotrichum graminicola; growth inhibition at 48 hours vs 2% DMSO control; read-out: Concentration at 90% Inhibition Cg. Type of assay: cell-based. As to the method:
as §1, §2, §3, §4

In the next assay the test system is Septoria tritici (St). The assay is described as follows: Growth inhibition assay of fungal pathogens, St. The conditions noted are these: Zymoseptoria tritici, 48 h, Septoria tritici; growth inhibition at 48 hours vs 2% DMSO control; read-out: Concentration at 90% Inhibition St. Type of assay: cell-based. As to the method: as §1, §2, §3, §4
The test system of assay [3] is Phytophthora capsici (Pc). The assay can be described thus: Growth inhibition assay of fungal pathogens, Pc. In kind it is cell-based. The conditions noted are these: 48 h, growth inhibition at 48 hours vs 2% DMSO control, read-out: Concentration at 90% Inhibition Pc. As to the method:
as §1, §2, §3, §4

Assay [4] deals with Fusarium virguliforme (Fv). The assay can be described thus: Growth inhibition assay of fungal pathogens, Fv. In kind it is cell-based. The conditions noted are these: 48 h, growth inhibition at 48 hours vs 2% DMSO control, read-out: Concentration at 90% Inhibition Fv. The procedure: as §1, §2, §3, §4
[5] abbreviates: mycelial plugs, growth inhibition at 48 hours vs 2% DMSO control, read-out: Concentration at 90% Inhibition Rs.
Setting [6] is: mycelial plugs, growth inhibition vs 2% DMSO control at 48 hours, read-out: Concentration at 90% Inhibition Rs.

Chain of human (hACC2) (O00763 whole entry): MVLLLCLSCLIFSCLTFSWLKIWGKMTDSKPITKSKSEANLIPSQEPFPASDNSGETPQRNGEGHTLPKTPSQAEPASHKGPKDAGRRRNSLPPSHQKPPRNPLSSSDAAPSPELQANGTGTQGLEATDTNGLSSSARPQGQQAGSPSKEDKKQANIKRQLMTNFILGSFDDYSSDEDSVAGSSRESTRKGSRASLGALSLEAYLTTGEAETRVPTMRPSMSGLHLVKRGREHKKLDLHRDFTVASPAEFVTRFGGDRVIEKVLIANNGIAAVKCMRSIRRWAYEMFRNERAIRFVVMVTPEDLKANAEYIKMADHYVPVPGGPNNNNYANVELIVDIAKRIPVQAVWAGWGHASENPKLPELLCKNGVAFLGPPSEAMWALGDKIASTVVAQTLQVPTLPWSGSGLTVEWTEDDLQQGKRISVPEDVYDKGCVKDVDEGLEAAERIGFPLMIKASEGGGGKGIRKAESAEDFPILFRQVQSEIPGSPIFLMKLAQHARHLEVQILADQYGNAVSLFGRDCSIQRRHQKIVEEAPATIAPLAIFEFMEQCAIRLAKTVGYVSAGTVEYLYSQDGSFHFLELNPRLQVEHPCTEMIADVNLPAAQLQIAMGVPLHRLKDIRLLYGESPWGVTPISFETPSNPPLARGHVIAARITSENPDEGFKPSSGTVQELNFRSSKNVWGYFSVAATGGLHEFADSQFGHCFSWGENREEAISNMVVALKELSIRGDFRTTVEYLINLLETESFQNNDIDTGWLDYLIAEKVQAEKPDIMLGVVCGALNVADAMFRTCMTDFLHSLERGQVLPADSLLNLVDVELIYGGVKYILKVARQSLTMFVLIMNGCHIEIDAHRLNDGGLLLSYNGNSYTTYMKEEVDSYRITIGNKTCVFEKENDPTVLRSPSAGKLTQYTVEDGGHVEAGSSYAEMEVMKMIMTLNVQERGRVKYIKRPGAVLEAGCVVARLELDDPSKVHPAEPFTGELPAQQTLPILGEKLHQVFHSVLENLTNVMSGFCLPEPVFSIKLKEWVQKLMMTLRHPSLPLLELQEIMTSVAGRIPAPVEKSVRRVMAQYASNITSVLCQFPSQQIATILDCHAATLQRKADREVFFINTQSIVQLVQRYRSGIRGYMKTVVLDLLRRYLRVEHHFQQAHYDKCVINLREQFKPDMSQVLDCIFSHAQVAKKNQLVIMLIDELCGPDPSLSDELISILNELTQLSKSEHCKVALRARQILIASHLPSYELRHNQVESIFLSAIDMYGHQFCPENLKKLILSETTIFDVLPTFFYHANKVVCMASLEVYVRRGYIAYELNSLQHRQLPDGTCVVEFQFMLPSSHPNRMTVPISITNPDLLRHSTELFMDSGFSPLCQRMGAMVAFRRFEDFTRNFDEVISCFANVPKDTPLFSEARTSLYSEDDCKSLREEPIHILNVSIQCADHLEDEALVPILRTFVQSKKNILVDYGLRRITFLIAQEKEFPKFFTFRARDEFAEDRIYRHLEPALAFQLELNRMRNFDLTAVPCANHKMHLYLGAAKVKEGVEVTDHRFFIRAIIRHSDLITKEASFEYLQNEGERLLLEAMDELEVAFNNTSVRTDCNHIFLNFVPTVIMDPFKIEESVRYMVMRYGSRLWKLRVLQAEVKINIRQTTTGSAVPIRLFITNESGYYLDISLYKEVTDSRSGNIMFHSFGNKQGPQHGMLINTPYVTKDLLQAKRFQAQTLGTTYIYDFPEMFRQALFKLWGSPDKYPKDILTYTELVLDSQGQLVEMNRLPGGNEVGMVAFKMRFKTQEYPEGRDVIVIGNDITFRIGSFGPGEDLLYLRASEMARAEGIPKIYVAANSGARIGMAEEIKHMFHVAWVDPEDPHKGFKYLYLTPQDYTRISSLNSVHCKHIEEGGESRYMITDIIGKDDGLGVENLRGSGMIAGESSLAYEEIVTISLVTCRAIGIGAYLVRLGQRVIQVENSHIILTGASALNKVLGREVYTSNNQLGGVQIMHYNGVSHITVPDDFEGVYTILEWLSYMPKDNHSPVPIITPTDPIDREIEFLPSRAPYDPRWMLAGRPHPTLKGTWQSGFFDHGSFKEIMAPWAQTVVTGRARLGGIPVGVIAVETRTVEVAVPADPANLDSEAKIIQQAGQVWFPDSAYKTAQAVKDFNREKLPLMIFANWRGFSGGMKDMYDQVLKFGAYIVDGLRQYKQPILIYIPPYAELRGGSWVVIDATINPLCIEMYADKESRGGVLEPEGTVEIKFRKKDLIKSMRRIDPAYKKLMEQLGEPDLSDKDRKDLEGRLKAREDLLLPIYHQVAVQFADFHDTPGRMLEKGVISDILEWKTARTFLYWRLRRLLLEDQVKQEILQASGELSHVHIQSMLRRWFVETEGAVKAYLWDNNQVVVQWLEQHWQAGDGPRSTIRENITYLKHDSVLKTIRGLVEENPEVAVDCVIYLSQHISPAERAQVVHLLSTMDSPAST

As for `COCCO[C@@H](Cn1c(=O)n(C(C)(C)C(=O)NC(C)C)c(=O)c2c(C)c(-n3nccn3)sc21)c1cc(F)ccc1OC` [Compound I-59, (R)-2-(1-(2-(5-fluoro-2-methoxyphenyl)-2-(2-methoxy-ethoxy)ethyl)-5-methyl-2,4-dioxo-6-(2H-1,2,3-triazol-2-yl)-1,4-dihydro-thieno[2,3-d]pyrimidin-3(2H)-yl)-N-isopropyl-2-methylpropanamide], the IC90 came to 0.4 µg/mL (≈ 0.664 µM) in the assay on Rhizoctonia solani (Rs) (read-out: Concentration at 90% Inhibition Rs, Rhizoctonia solani, mycelial plugs, growth inhibition at 48 hours vs 2% DMSO control) and 0.4 µg/mL (≈ 0.664 µM) in the assay with Rhizoctonia solani (Rs) (read-out: Concentration at 90% Inhibition Rs, Rhizoctonia solani, mycelial plugs, growth inhibition vs 2% DMSO control at 48 hours). In addition, the IC50 (in general, the concentration that inhibits the measured activity by half) against human (hACC2) (Table 2a) was 5 to 10 nM; against human (hACC2) (Table 2b, additional results) it was 5 to 10 nM.

As to `COCCO[C@@H](Cn1c(=O)n(C(C)(C)C(=O)N2CCCC2)c(=O)c2c(C)c(-n3nccn3)sc21)c1cc(F)ccc1OC` [Compound I-60, (R)-1-(2-(5-fluoro-2-methoxyphenyl)-2-(2-methoxy-ethoxy)ethyl)-5-methyl-3-(2-methyl-1-oxo-1-(pyrrolidin-1-yl)propan-2-yl)-6-(2H-1,2,3-triazol-2-yl)thieno[2,3-d]pyrimidine-2,4(1H,3H)-dione], the IC90 with Rhizoctonia solani (Rs) (setting [5]) and with Rhizoctonia solani (Rs) (setting [6]) was greater than 50 µg/mL throughout. Further, the IC50 against human (hACC2) (Table 2a) was in the range of 10 to 40 nM; on human (hACC2) (Table 2b, additional results), 10 to 40 nM.

Regarding `COCCOc1ccc(F)cc1[C@H](Cn1c(=O)n(C(C)(C)C(=O)NC(C)C)c(=O)c2c(C)c(-n3nccn3)sc21)OC1CCOCC1` [Compound I-61, (R)-2-(1-(2-(5-fluoro-2-(2-methoxyethoxy)phenyl)-2-((tetrahydro-2H-pyran-4-yl)oxy)ethyl)-5-methyl-2,4-dioxo-6-(2H-1,2,3-triazol-2-yl)-1,4-dihydrothieno[2,3-d]pyrimidin-3(2H)-yl)-N-isopropyl-2-methylpropanamide], the IC90 in the assay on Rhizoctonia solani (Rs) (setting [5]) and in the assay with Rhizoctonia solani (Rs) (setting [6]) was 0.08 µg/mL (≈ 0.119 µM) in each case. For the same compound, the IC50 lay in the range of 5 to 10 nM at human (hACC2) (Table 2a) and 5 to 10 nM against human (hACC2) (Table 2b, additional results).

Consider `COc1ccccc1[C@@H](O)Cn1c(=O)n(C(C)(C)C(=O)N2CCCC2)c(=O)c2c(C)c(-n3nccn3)sc21` [Compound I-189], for which the IC90 was 10 µg/mL (≈ 18.6 µM) in assay [1]; greater than 50 µg/mL in the assay on Diplodia maydis (Dm); 10 µg/mL (≈ 18.6 µM) with Botrtyis cinerea (Bc); 0.08 µg/mL (≈ 0.149 µM) with Rhizoctonia solani (Rs) (setting [5]); greater than 50 µg/mL in assay [2]; greater than 50 µg/mL in the assay on Septoria tritici (St). The figures for the IC90 in [3] and in [4] were greater than 50 µg/mL and 10 µg/mL (≈ 18.6 µM), respectively. For the same compound, the MIC in the assay on C. parapsilosis, with C. albicans and in the assay on C. krusei was 1.01 to 2 µg/mL (≈ 1.88 to 3.71 µM) each time. Moreover, the 50% inhibitory concentration (IC50) on human (hACC2) (Table 2b, additional results) was in the range of 10 to 40 nM.

Take `COc1ccc(F)cc1[C@@H](O)Cn1c(=O)n([C@@H](C)C(=O)N2CC=CC2)c(=O)c2c(C)c(-n3nccn3)sc21` [Compound I-193]: the IC90 in [1] is 2 µg/mL (≈ 3.7 µM); in the assay with Diplodia maydis (Dm), greater than 50 µg/mL; in the assay on Botrtyis cinerea (Bc) it was 10 µg/mL (≈ 18.5 µM); in the assay with Rhizoctonia solani (Rs) (setting [5]), 2 µg/mL (≈ 3.7 µM); in [2], 10 µg/mL (≈ 18.5 µM); in the assay on Septoria tritici (St) it was greater than 50 µg/mL. The IC90 in [3] is greater than 50 µg/mL; in assay [4], 2 µg/mL (≈ 3.7 µM). In addition, the MIC in the assay on C. parapsilosis, in the assay on C. albicans and in the assay on C. krusei was 1.01 to 2 µg/mL (≈ 1.87 to 3.7 µM) each time. The same compound came in with a half-inhibitory concentration (IC50) at human (hACC2) (Table 2b, additional results) of 5 to 10 nM.
